Test results reported in paper PMC11672551, “Cyclic Ruthenium-Peptide Prodrugs Penetrate the Blood–Brain Barrier and Attack Glioblastoma upon Light Activation in Orthotopic Zebrafish Tumor Models” (ACS Central Science, 2024).
Like-named read-outs stand apart in the source and are kept apart here.

Columns and labels:
U87MG cells [1] = test: 2D cytotoxicity assay, SRB end point, dark vs green light; type: cell-based, human; settings: normoxia (21% O2); for EC50: SRB at 96 h
Method: To test the in vitro phototoxicity of the three complexes toward 2D monolayer U87MG cells, a cell viability assay was undertaken as follows: the cells were seeded at t = 0, treated at t = 24 h, irradiated with green light (520 nm, 13.1 J cm^–2) at t = 48 h without refreshing the medium (drug-to-light interval = 24 h), further incubated in the dark for 48 h, and counted at t = 96 h with a sulforhodamine B (SRB) cell quantification end point assay.[45] Half-maximal effective concentrations (EC50 in μM), compared to untreated control, and photoindex (PI) values, defined as EC50,dark/ EC50,light, were calculated to characterize the toxicity and light activation of each Ru-peptide conjugate. […] However, a much stronger discrepancy appeared in the 2D toxicity data in hypoxic conditions (Table 2, Figure S22b). The phototherapeutic properties of Ru-p(HH) in the green light group were the poorest, leading to a PI of only 1.3. […] Ru-p(MH) stood somewhere between these values with a PI of 1.9 under hypoxia. […] The loss of activity of Ru-p(HH) under hypoxia is consistent with the hypothesis of a PDT pathway, while Ru-p(MM) keeping appreciable phototoxicity under hypoxia better fits the hypothesis of a PACT cell-killing mechanism.
U87MG cells (6000) were seeded in 96-well plates (Sarstedt, 83.3924), and each well contained 100 μL of Opti-MEM (Gibco complete medium 11058-021, supplemented with 2.5% v/v fetal calf serum (FCS), 0.2% v/v penicillin/streptomycin (P/S), and 1% v/v glutamine). They were then placed either in a normoxic (21% O2) or hypoxic (1.0% O2) incubator; 24 h later, different concentrations of Ru-p(HH), Ru-p(MH), or Ru-p(MM) dissolved in Opti-MEM (100 μL) were added to the wells in triplicate. For each complex, one dark and one light plate were involved. Each plate was further incubated in the dark for 24 h (DLI). After that, one plate was irradiated with green light (520 nm) for 20 min at 37 °C for normoxia (dose = 13.1 J cm^–2) or 30 min for hypoxia (dose = 13.0 J cm^–2), while the other plate was kept in the dark. The cells were further incubated for another 2 days in normoxic or hypoxic conditions, respectively. Finally, 100 μL of cold trichloroacetic acid (10% w/v) was added to each well to fix the cells, and all plates were then transferred to a 4 °C refrigerator for 48 h before an SRB cell quantification end point assay was performed.[45] All experiments were conducted in biologically independent triplicate.
Hypoxic cell models in vitro: all cells were incubated and passaged in a dark hypoxic incubator (1% O2) for at least 2 weeks before all hypoxia studies. Adding chemicals to the cells had to be performed in air; however, the cell-growing medium was kept in the hypoxia incubator for at least 2 days before the addition to hypoxic cells, and all hypoxic light irradiations were performed inside the hypoxic incubator set at 1.0% O2.

U87MG cells [2] = test: Intracellular ROS generation, CellROX Deep Red, flow cytometry; type: cell-based, human; settings: 15 μM, 24 h, green light 515 nm, 13.1 J cm–2, normoxia, n = 2
Method: Figure 3 Light activation mechanism in cells treated with Ru-peptide conjugates. (a) Emission intensity of cells treated with Ru-p(HH), Ru-p(MH), or Ru-p(MM) (15 μM, 24 h) and irradiated with green light (520 nm, 13.1 J cm^–2) for different times: 0–1200 s, as determined by flow cytometry using a PC5.5 filter (ex/em = 488/650 ± 50 nm). (b) Intracellular ROS generation assay in normoxic (N) and hypoxic (H) U87MG cells according to FACS analysis using nonselective ROS probe CellROX Deep Red Reagent, after treatment with Ru-p(HH), Ru-p(MH), Ru-p(MM), cisplatin, Rose Bengal, or [Ru(Ph2phen)2Cl2] (labeled as Ru-Cl2) (15 μM, 24 h), in the dark and after light irradiation (515 nm, 13.1 J cm^–2). tBHP (250 μM, 1 h) was used as a positive control for ROS generation. Error bars: SEM, n = 2. (c) Slopes of the UV–vis absorption of AMDA (for ^1O2, blue bars) or emission intensity of DHE (for O2^•–, red bars) vs irradiation time (see Figures S26–S28) after being incubated with Ru-p(HH), Ru-p(MH), Ru-p(MM), Ru-Cl2, or Rose Bengal (20 μM) and irradiated with green light in Opti-MEM solution. (d) Percentage of alive (−/−), early apoptotic (−/+), late apoptotic (+/+) and necrotic (+/−) U87MG cells costained with Apopxin Deep Red Indicator and Nuclear Green DCS1 as quantified by flow cytometry, after treatment with Ru-p(HH), Ru-p(MH), Ru-p(MM), cisplatin or Rose Bengal in the dark (D) and after light irradiation (L, DLI = 24 h, 515 nm, 13.1 J cm^–2); drug concentration: 20 μM, DLI = 24 h).
Second, CellROX Deep Red, a nonspecific molecular probe for ROS formation, was used to quantify the photodynamic behaviors by each of the three complexes in U87MG cells,.[22] […]
The generation of ROS (reactive oxygen species) in U87MG cells was measured using a ROS deep red fluorescence indicator (Abcam, ab186029). […] The levels of intracellular ROS were then determined using a CytoFLEX flow cytometer using the APC-A (638 nm excitation, 660/10 nm emission) channel. […]

[3] = not given; remark: listed apart in the source
[4] = not given; remark: listed apart in the source
[5] = reference value; cited from earlier work
Source text: Table 1 Photochemical Data for Ru-Peptide Conjugates | column: complex

Row | Compound | intracellular ROS production, normoxia (U87MG cells [2]) | λem [nm] | λmax [4] [nm] | also measured
1 | [Ru(Ph2phen)2Cl2] | able to generate ROS in cells | – | – | PI, photoindex EC50,dark/EC50,light (U87MG cells [1]): 7.2; EC50 (U87MG cells [1]; 520 nm, 10.9 mW cm–2, 13.1 J cm–2, 20 min, DLI 24 h, n = 3, read-out: EC50, green light): 200 nM; EC50 (U87MG cells [1]; light dose 0, 24 h treatment, no wash, n = 3, read-out: EC50, dark): 1430 nM
2 | O=C([O-])c1c(Cl)c(Cl)c(Cl)c(Cl)c1-c1c2cc(I)c(=O)c(I)c-2oc2c(I)c([O-])c(I)cc12.[Na+].[Na+] [Rose Bengal] | high amount of ROS | – | – | –
3 | N.N.[Cl][Pt][Cl] [cisplatin] | barely showed any ROS formation | – | – | –
4 | Ac-MRGDH-NH2 | – | 700 | 465 | relative emission intensity compared to Ru-p(HH) [3]: 2%
5 | Ac-HRGDH-NH2 | – | 658 | 500 | –
6 | [Cl][Ru][Cl].c1ccc(-c2ccccn2)nc1.c1ccc(-c2ccccn2)nc1.c1ccc(-c2ccccn2)nc1 [[Ru(bpy)3]Cl2] | – | – | – | ΦΔ ref, singlet oxygen quantum yield of the reference [5]: 73%
7 | Ac-MRGDM-NH2 | – | 700 | 400 | relative emission intensity compared to Ru-p(HH) [3]: 0.2%
